Experimental data from US20170042152A1, “SAFENED HERBICIDAL COMPOSITIONS COMPRISING PYRIDINE CARBOXYLIC ACIDS” (priority 2015, published 2017).

Legend:
durum wheat (TRZDU) = test: Small plot field trial, crop safety; assay type: in vivo, Triticum durum; details: 20 g ae/ha herbicide (triisopropanol amine salt), no safener, post-emergence, mean
Description: (§1) The triisopropanol amine salts of herbicides of formulas I-G-A, I-G-B and I-G-C were tested with and without cloquintocet-mexyl in small plot field trials across various ecozones to evaluate the crop safety of these compounds on […] cereals including winter wheat and durum wheat.
(§2) All herbicide treatments were applied post-emergence in the spring to early summer. Herbicides were applied with bicycle or tractor-mounted sprayers using carbon dioxide (CO2) as a propellant. The sprayers delivered a uniform spray pattern that provided thorough coverage of the foliage using a 150 or 200 L/ha spray volume. At the time of herbicide applications, winter wheat was at the two leaf growth stage and durum wheat was at the 2-3 leaf growth stage.
(§3) Phytotoxicity to cereal crops was visually assessed as percent overall injury, compared to an untreated control plot. The overall injury assessments were based on visual ratings of growth inhibition, chlorosis, and delay in maturity. At late ratings (54-57 days after application), percent visual seed head deformity and reduction in seed formation were also assessed. Trials were designed as randomized complete blocks with four replicates. In general, three to four replicates were assessed for each treatment.

lambsquarters (CHEAL) [1] = test: Small plot field trial, weed growth reduction; assay type: in vivo, Chenopodium album; details: 20 g ae/ha herbicide (triisopropanol amine salt), no safener, post-emergence, mean
lambsquarters (CHEAL) [2] = test: Greenhouse postemergence trial, weed efficacy; assay type: in vivo, Chenopodium album; details: herbicide 20 g ae/ha, cloquintocet-mexyl 0 g ai/ha, 20-22 d
Description: (§4) Seeds of the desired test plant species were planted in Sun Gro MetroMix® 306 planting mixture, which typically has a pH of 6.0 to 6.8 and an organic matter content of about 30 percent, in plastic pots with a surface area of 103.2 square centimeters (cm^2). When required to ensure good germination and healthy plants, a fungicide treatment and/or other chemical or physical treatment was applied. The plants were grown for 7-36 days (d) in a greenhouse with an approximate 14-hour (h) photoperiod which was maintained at about 18° C. during the day and 17° C. during the night. Nutrients and water were added on a regular basis and supplemental lighting was provided with overhead metal halide 1000-Watt lamps as necessary. The plants were employed for testing when they reached the second or third true leaf stage.
(§5) Weighed amounts of technical material were dissolved in a volume of 97:3 volume per volume (v/v) acetone/dimethyl sulfoxide (DMSO) to stock solutions. […] Compound requirements are based upon a 12 milliliter (mL) application volume at a rate of 187 liters per hectare (L/ha). Stock solutions of the safeners were prepared following the same procedure. Spray solutions of the safeners and experimental compound mixtures were prepared by adding the stock solutions to the appropriate amount of dilution solution to form a 12 mL spray solution in two-way combinations. Formulated compounds were applied to the plant material with an overhead Mandel track sprayer equipped with 8002E nozzles calibrated to deliver 187 L/ha over an application area of 0.503 square meters (m^2) at a spray height of 18 inches (43 centimeters (cm)) above average plant canopy. Control plants were sprayed in the same manner with the solvent blank.
(§6) The treated plants and control plants were placed in a greenhouse as described above and watered by sub-irrigation to prevent wash-off of the test compounds. After 20-22 d, the condition of the test plants as compared with that of the control plants was determined visually and scored on a scale of 0 to 100 percent where 0 corresponds to no injury and 100 corresponds to complete kill. Colby's equation was used to determine the herbicidal effects expected from the mixtures.

shepherd's purse (CAPBP) = test: Greenhouse postemergence trial, weed efficacy; assay type: in vivo, Capsella bura-pastoris; details: herbicide 20 g ae/ha, cloquintocet-mexyl 0 g ai/ha, 20-22 d
Description: as §4, §5, §6

wild buckwheat (POLCO) = test: Greenhouse postemergence trial, weed efficacy; assay type: in vivo, Polygonum convulvus; details: cloquintocet-mexyl 0 g ai/ha, 20-22 d
Description: as §4, §5, §6

kochia (KCHSC) = test: Greenhouse postemergence trial, weed efficacy; assay type: in vivo, Kochia scoparia; details: cloquintocet-mexyl 0 g ai/ha, 20-22 d
Description: as §4, §5, §6

wild mustard (SINAR) = test: Greenhouse postemergence trial, weed efficacy; assay type: in vivo, Sinapis arvensis; details: herbicide 20 g ae/ha, cloquintocet-mexyl 0 g ai/ha, 20-22 d
Description: as §4, §5, §6

spring barley (HORVS) = test: Greenhouse postemergence safening trial, crop phytotoxicity; assay type: in vivo, Hordeum vulgare; details: cloquintocet-mexyl 0 g ai/ha, 20-22 d
Description: as §4, §5, §6

wild pansy (VIOTR) = test: Greenhouse postemergence trial, weed efficacy; assay type: in vivo, Viola tricolor; details: cloquintocet-mexyl 0 g ai/ha, 20-22 d
Description: as §4, §5, §6

spring wheat (TRZAS) = test: Greenhouse postemergence safening trial, crop phytotoxicity; assay type: in vivo, Triticum aestivum; details: cloquintocet-mexyl 0 g ai/ha, 20-22 d
Description: as §4, §5, §6

winter wheat (TRZAW) [3] = test: as above; assay type: in vivo, Triticum aestivum; details: herbicide 20 g ae/ha, cloquintocet-mexyl 0 g ai/ha, 20-22 d
Description: as §4, §5, §6

winter wheat (TRZAW) [4] = test: Small plot field trial, crop safety; assay type: in vivo, Triticum aestivum; details: 20 g ae/ha herbicide (triisopropanol amine salt), no safener, post-emergence, mean
Description: as §1, §2, §3

Russian thistle (SASKR) = test: Greenhouse postemergence trial, weed efficacy; assay type: in vivo, Salsola iberica; details: cloquintocet-mexyl 0 g ai/ha, 20-22 d
Description: as §4, §5, §6

Canada thistle (CIRAR) = test: Small plot field trial, weed growth reduction; assay type: in vivo, Cirsuim arvensis; details: 20 g ae/ha herbicide (triisopropanol amine salt), no safener, post-emergence, mean
[5] = test system: bird's-eye speedwell (VERPE); test: Greenhouse postemergence trial, weed efficacy; assay type: in vivo, Veronica persica; details: cloquintocet-mexyl 0 g ai/ha, 20-22 d
Description: as §4, §5, §6

CCc1nc(C(=O)O)c(Cl)c(N)c1F [formula I-G-A]
TRZDU Visual head deformation, % of untreated (durum wheat (TRZDU)): 4.3 % of untreated | TRZDU Visual injury, % of untreated (durum wheat (TRZDU)): 5.7 % of untreated | Growth reduction of CHEAL, % of untreated (lambsquarters (CHEAL) [1]): 100 % of untreated | % visual injury CHEAL Ob (lambsquarters (CHEAL) [2]): 85% | % visual injury CAPBP Ob (shepherd's purse (CAPBP)): 100% | % visual injury POLCO Ob (wild buckwheat (POLCO); herbicide 4.375 g ae/ha): 0% | % visual injury POLCO Ob (wild buckwheat (POLCO); herbicide 8.75 g ae/ha): 49% | % visual injury POLCO Ob (wild buckwheat (POLCO); herbicide 17.5 g ae/ha): 40% | % visual injury POLCO Ob (wild buckwheat (POLCO); herbicide 35 g ae/ha): 75% | % visual injury POLCO Ob (wild buckwheat (POLCO); herbicide 70 g ae/ha): 96% | % visual injury KCHSC Ob (kochia (KCHSC); herbicide 4.375 g ae/ha): 13% | % visual injury KCHSC Ob (kochia (KCHSC); herbicide 8.75 g ae/ha): 23% | % visual injury KCHSC Ob (kochia (KCHSC); herbicide 17.5 g ae/ha): 32% | % visual injury KCHSC Ob (kochia (KCHSC); herbicide 35 g ae/ha): 67% | % visual injury KCHSC Ob (kochia (KCHSC); herbicide 70 g ae/ha): 67% | % visual injury SINAR Ob (wild mustard (SINAR)): 97% | % visual injury HORVS Ob (spring barley (HORVS); herbicide 4.375 g ae/ha): 0% | % visual injury HORVS Ob (spring barley (HORVS); herbicide 8.75 g ae/ha): 3% | % visual injury HORVS Ob (spring barley (HORVS); herbicide 17.5 g ae/ha): 10% | % visual injury HORVS Ob (spring barley (HORVS); herbicide 20 g ae/ha): 13% | % visual injury HORVS Ob (spring barley (HORVS); herbicide 35 g ae/ha): 37% | % visual injury HORVS Ob (spring barley (HORVS); herbicide 70 g ae/ha): 47% | % visual injury VIOTR Ob (wild pansy (VIOTR); herbicide 4.375 g ae/ha): 3% | % visual injury VIOTR Ob (wild pansy (VIOTR); herbicide 8.75 g ae/ha): 20% | % visual injury VIOTR Ob (wild pansy (VIOTR); herbicide 17.5 g ae/ha): 37% | % visual injury VIOTR Ob (wild pansy (VIOTR); herbicide 35 g ae/ha): 65% | % visual injury VIOTR Ob (wild pansy (VIOTR); herbicide 70 g ae/ha): 82% | % visual injury TRZAS Ob (spring wheat (TRZAS); herbicide 4.375 g ae/ha): 0% | % visual injury TRZAS Ob (spring wheat (TRZAS); herbicide 8.75 g ae/ha): 7% | % visual injury TRZAS Ob (spring wheat (TRZAS); herbicide 17.5 g ae/ha): 33% | % visual injury TRZAS Ob (spring wheat (TRZAS); herbicide 35 g ae/ha): 60% | % visual injury TRZAS Ob (spring wheat (TRZAS); herbicide 70 g ae/ha): 70% | % visual injury TRZAW Ob (winter wheat (TRZAW) [3]): 25% | Instances of TRZAW grain reduction, % of untreated (winter wheat (TRZAW) [4]): 39.9 % of untreated | TRZAW grain formation reduction, % of untreated (winter wheat (TRZAW) [4]): 27.9 % of untreated | % visual injury SASKR Ob (Russian thistle (SASKR); herbicide 4.375 g ae/ha): 67% | % visual injury SASKR Ob (Russian thistle (SASKR); herbicide 8.75 g ae/ha): 72% | % visual injury SASKR Ob (Russian thistle (SASKR); herbicide 17.5 g ae/ha): 75% | % visual injury SASKR Ob (Russian thistle (SASKR); herbicide 35 g ae/ha): 82% | % visual injury SASKR Ob (Russian thistle (SASKR); herbicide 70 g ae/ha): 82% | Growth reduction of CIRAR, % of untreated (Canada thistle (CIRAR)): 95.5 % of untreated | % visual injury VERPE Ob ([5]; herbicide 4.375 g ae/ha): 0% | % visual injury VERPE Ob ([5]; herbicide 8.75 g ae/ha): 7% | % visual injury VERPE Ob ([5]; herbicide 17.5 g ae/ha): 23% | % visual injury VERPE Ob ([5]; herbicide 35 g ae/ha): 50% | % visual injury VERPE Ob ([5]; herbicide 70 g ae/ha): 77%
